Measurements from publication PMC5218480 (PLoS ONE, 2017).

Tested on: MV-4-11 cells
Assay: Gene expression microarray analysis (Affymetrix PrimeView) and GSEA
Format: cell-based, human
Parameters: RFU PODN (11730768_x_at) / Fold change /veh PODN (11730768_x_at) / RFU LINC00158 (11744669_a_at) / Fold change /veh LINC00158 (11744669_a_at) / RFU DUSP10 (11751237_a_at) / Fold change /veh DUSP10 (11751237_a_at) / RFU ID3 (11757404_x_at) / Fold change /veh ID3 (11757404_x_at) / RFU PLEKHG5 (11737974_s_at) / Fold change /veh PLEKHG5 (11737974_s_at) / RFU LRRC4B (11730491_at) / Fold change /veh LRRC4B (11730491_at) / RFU GIMAP4 (11747438_a_at) / Fold change /veh GIMAP4 (11747438_a_at) / RFU KRT8 (11758183_x_at) / Fold change /veh KRT8 (11758183_x_at) / RFU CNN1 (11734310_a_at) / Fold change /veh CNN1 (11734310_a_at) / RFU VPS37D (11726825_at) / Fold change /veh VPS37D (11726825_at) / RFU C10orf10 (11716522_x_at) / Fold change /veh C10orf10 (11716522_x_at) / RFU KIR2DL2 /// KIR2DL4 /// KIR2DL5A /// KIR2DL5B /// KIR2DS1 /// KIR2DS2 /// KIR2DS3 /// KIR2DS4 /// KIR3DL3 /// KIR3DL3 /// KIR3DS1 (11738374_at) / Fold change /veh KIR2DL2 /// KIR2DL4 /// KIR2DL5A /// KIR2DL5B /// KIR2DS1 /// KIR2DS2 /// KIR2DS3 /// KIR2DS4 /// KIR3DL3 /// KIR3DL3 /// KIR3DS1 (11738374_at) / RFU C1QL1 (11718748_at) / Fold change /veh C1QL1 (11718748_at) / RFU TMPRSS4 (11747572_a_at) / Fold change /veh TMPRSS4 (11747572_a_at) / RFU HAMP (11756126_x_at) / Fold change /veh HAMP (11756126_x_at) / RFU RNFT2 (11725882_a_at) / Fold change /veh RNFT2 (11725882_a_at) / RFU NR4A2 (11747474_a_at) / Fold change /veh NR4A2 (11747474_a_at) / RFU ABCC12 (11746883_a_at) / Fold change /veh ABCC12 (11746883_a_at) / RFU TMEM136 (11760407_x_at) / Fold change /veh TMEM136 (11760407_x_at) / RFU CLDN22 /// WWC2 (11732394_at) / Fold change /veh CLDN22 /// WWC2 (11732394_at) / RFU HLA-DPB1 (11760878_x_at) / Fold change /veh HLA-DPB1 (11760878_x_at) / RFU SPINT1 (11716480_a_at) / Fold change /veh SPINT1 (11716480_a_at) / RFU GAP43 (11754022_s_at) / Fold change /veh GAP43 (11754022_s_at) / RFU A4GNT (11735810_at) / Fold change /veh A4GNT (11735810_at) / RFU PRB3 (11715151_x_at) / Fold change /veh PRB3 (11715151_x_at) / RFU TUBB4B (11761932_at) / Fold change /veh TUBB4B (11761932_at) / RFU CAPN14 (11732068_a_at) / Fold change /veh CAPN14 (11732068_a_at) / RFU TMCC2 (11721928_a_at) / Fold change /veh TMCC2 (11721928_a_at) / RFU IRGQ (11745062_a_at) / Fold change /veh IRGQ (11745062_a_at) / RFU FAM174B (11720279_a_at) / Fold change /veh FAM174B (11720279_a_at) / RFU TMPRSS4 (11748680_a_at) / Fold change /veh TMPRSS4 (11748680_a_at) / RFU FAM212B (11763350_a_at) / Fold change /veh FAM212B (11763350_a_at) / RFU PLEKHG5 (11743358_a_at) / Fold change /veh PLEKHG5 (11743358_a_at) / RFU ZSCAN30 (11745921_a_at) / Fold change /veh ZSCAN30 (11745921_a_at) / RFU CMKLR1 (11741424_a_at) / Fold change /veh CMKLR1 (11741424_a_at) / RFU LOC101060620 /// MAPK8IP1 (11723275_at) / Fold change /veh LOC101060620 /// MAPK8IP1 (11723275_at) / RFU SPTSSB (11747773_x_at) / Fold change /veh SPTSSB (11747773_x_at) / RFU PRSS12 (11739890_at) / Fold change /veh PRSS12 (11739890_at) / RFU BIN1 (11741810_x_at) / Fold change /veh BIN1 (11741810_x_at) / RFU WNT11 (11732464_a_at) / Fold change /veh WNT11 (11732464_a_at) / RFU C10orf10 (11716521_a_at) / Fold change /veh C10orf10 (11716521_a_at) / RFU C5orf56 (11738089_at) / Fold change /veh C5orf56 (11738089_at) / RFU CYB561 (11721691_x_at) / Fold change /veh CYB561 (11721691_x_at) / RFU ANKRD19P (11752326_a_at) / Fold change /veh ANKRD19P (11752326_a_at) / RFU OR2T12 /// OR2T33 /// OR2T8 (11738714_s_at) / Fold change /veh OR2T12 /// OR2T33 /// OR2T8 (11738714_s_at) / RFU VCAN (11748164_a_at) / Fold change /veh VCAN (11748164_a_at) / RFU JSRP1 (11732532_at) / Fold change /veh JSRP1 (11732532_at) / RFU KRTAP10-11 (11738290_x_at) / Fold change /veh KRTAP10-11 (11738290_x_at) / RFU MYO3A (11730013_a_at) / Fold change /veh MYO3A (11730013_a_at) / RFU EBF3 (11725865_a_at) / Fold change /veh EBF3 (11725865_a_at) / RFU CAMK2N1 (11719241_x_at) / Fold change /veh CAMK2N1 (11719241_x_at) / RFU C5orf56 (11738088_a_at) / Fold change /veh C5orf56 (11738088_a_at) / RFU OLFML3 (11715873_a_at) / Fold change /veh OLFML3 (11715873_a_at) / RFU LOC100653217 /// NTM (11731650_a_at) / Fold change /veh LOC100653217 /// NTM (11731650_a_at) / RFU MAPK11 (11762145_a_at) / Fold change /veh MAPK11 (11762145_a_at) / RFU FIZ1 (11724087_x_at) / Fold change /veh FIZ1 (11724087_x_at) / RFU OASL (11726364_x_at) / Fold change /veh OASL (11726364_x_at) / RFU SOX15 (11748057_x_at) / Fold change /veh SOX15 (11748057_x_at) / RFU CD79A (11719716_a_at) / Fold change /veh CD79A (11719716_a_at) / RFU HIST1H1D (11736915_at) / Fold change /veh HIST1H1D (11736915_at) / RFU CASKIN2 (11723855_a_at) / Fold change /veh CASKIN2 (11723855_a_at) / RFU LOC730098 (11760151_x_at) / Fold change /veh LOC730098 (11760151_x_at) / RFU OR4N2 (11742367_at) / Fold change /veh OR4N2 (11742367_at) / RFU PRRT2 (11749266_a_at) / Fold change /veh PRRT2 (11749266_a_at) / RFU SNX32 (11753110_a_at) / Fold change /veh SNX32 (11753110_a_at) / RFU CDHR5 (11726645_a_at) / Fold change /veh CDHR5 (11726645_a_at) / RFU RCAN1 (11760418_a_at) / Fold change /veh RCAN1 (11760418_a_at) / RFU FAM167A (11723789_a_at) / Fold change /veh FAM167A (11723789_a_at) / RFU FAM26E (11764081_at) / Fold change /veh FAM26E (11764081_at) / RFU ISYNA1 (11749810_s_at) / Fold change /veh ISYNA1 (11749810_s_at) / RFU ACY1 (11761880_at) / Fold change /veh ACY1 (11761880_at) / RFU 11764098_at / Fold change /veh 11764098_at / RFU SAMD14 (11745864_x_at) / Fold change /veh SAMD14 (11745864_x_at) / RFU NPB (11741838_a_at) / Fold change /veh NPB (11741838_a_at) / RFU TMPRSS6 (11731388_a_at) / Fold change /veh TMPRSS6 (11731388_a_at) / RFU KRTAP10-2 (11738614_at) / Fold change /veh KRTAP10-2 (11738614_at) / RFU ARHGAP8 /// PRR5-ARHGAP8 (11727945_x_at) / Fold change /veh ARHGAP8 /// PRR5-ARHGAP8 (11727945_x_at) / RFU KRTAP5-7 /// NADSYN1 (11734609_at) / Fold change /veh KRTAP5-7 /// NADSYN1 (11734609_at) / RFU RASL12 (11751679_a_at) / Fold change /veh RASL12 (11751679_a_at) / RFU CDKN2B (11736163_a_at) / Fold change /veh CDKN2B (11736163_a_at) / RFU PRF1 (11729649_at) / Fold change /veh PRF1 (11729649_at) / RFU, ZNF638 /// ZNF638-IT1 / Fold change vs veh, ZNF638 /// ZNF638-IT1 / RFU, PANK3 / Fold change vs veh, PANK3 / RFU, SH3YL1 / Fold change vs veh, SH3YL1 / RFU, ZEB2 / Fold change vs veh, ZEB2 / RFU, NRIP1 / Fold change vs veh, NRIP1 / RFU, PTTG1IP / Fold change vs veh, PTTG1IP / RFU, CAPN2 / Fold change vs veh, CAPN2 / RFU, MED14 / Fold change vs veh, MED14 / RFU, SNORA58 / Fold change vs veh, SNORA58 / RFU, C1orf63 / Fold change vs veh, C1orf63 / RFU, LRRFIP1 / Fold change vs veh, LRRFIP1 / RFU, NDUFAF7 / Fold change vs veh, NDUFAF7 / RFU, SLC12A2 / Fold change vs veh, SLC12A2 / RFU, IBTK / Fold change vs veh, IBTK / RFU, ESF1 / Fold change vs veh, ESF1 / Fold change vs veh, TMEM50B / RFU, TAOK1 / Fold change vs veh, TAOK1 / RFU, ACBD3 / Fold change vs veh, ACBD3 / RFU, TMA16 / Fold change vs veh, TMA16 / RFU, RWDD3 / Fold change vs veh, RWDD3 / RFU, BCAT1 / Fold change vs veh, BCAT1 / RFU, EDEM3 / Fold change vs veh, EDEM3 / RFU, TMEM33 / Fold change vs veh, TMEM33 / RFU, WDR75 / Fold change vs veh, WDR75 / RFU, AHCTF1 / Fold change vs veh, AHCTF1 / RFU, TFRC / Fold change vs veh, TFRC / RFU, ZDHHC17 / Fold change vs veh, ZDHHC17 / RFU, NOM1 / Fold change vs veh, NOM1 / RFU, ARL8B / Fold change vs veh, ARL8B / RFU, ZBTB11 / Fold change vs veh, ZBTB11 / RFU, TAMM41 / Fold change vs veh, TAMM41 / RFU, KIAA1704 /// LOC100996395 / Fold change vs veh, KIAA1704 /// LOC100996395 / RFU, ING1 / Fold change vs veh, ING1 / RFU, TRMT61B / Fold change vs veh, TRMT61B / RFU, FUBP3 / Fold change vs veh, FUBP3 / RFU, TP53 / Fold change vs veh, TP53 / RFU, TNKS2 / Fold change vs veh, TNKS2 / RFU, ZFP14 / Fold change vs veh, ZFP14 / RFU, ACTR2 / Fold change vs veh, ACTR2 / RFU, PPP3R1 / Fold change vs veh, PPP3R1 / RFU, PIK3R1 / Fold change vs veh, PIK3R1 / RFU, HNRNPA1 / Fold change vs veh, HNRNPA1 / RFU, RNF170 / Fold change vs veh, RNF170 / RFU, ZNF28 / Fold change vs veh, ZNF28 / RFU, RNGTT / Fold change vs veh, RNGTT / RFU, OGT / Fold change vs veh, OGT / RFU, BRD1 / Fold change vs veh, BRD1 / RFU, MARS / Fold change vs veh, MARS / RFU, ZNF655 / Fold change vs veh, ZNF655 / RFU, FAHD1 / Fold change vs veh, FAHD1 / RFU, BDP1 / Fold change vs veh, BDP1 / RFU, LRRCC1 / Fold change vs veh, LRRCC1 / RFU, ARID1A / Fold change vs veh, ARID1A / RFU, ZNF146 / Fold change vs veh, ZNF146 / RFU, ZNF330 / Fold change vs veh, ZNF330 / RFU, GPN3 / Fold change vs veh, GPN3 / RFU, C9orf123 / Fold change vs veh, C9orf123 / RFU, N4BP2L2 / Fold change vs veh, N4BP2L2 / RFU, ARFIP1 / Fold change vs veh, ARFIP1 / RFU, FAM179B / Fold change vs veh, FAM179B / RFU, BCL10 / Fold change vs veh, BCL10 / RFU, UHRF1BP1L / Fold change vs veh, UHRF1BP1L / RFU, BET1 / Fold change vs veh, BET1 / RFU, CNOT2 / Fold change vs veh, CNOT2 / RFU, ZNF268 / Fold change vs veh, ZNF268 / Fold change vs veh, ZNF507 / RFU, DGCR2 / Fold change vs veh, DGCR2 / RFU, WDSUB1 / Fold change vs veh, WDSUB1 / Fold change vs veh, HSP90B1 /// MIR3652 / RFU, ADSS / Fold change vs veh, ADSS / RFU, GK / Fold change vs veh, GK / RFU, ZNF148 / Fold change vs veh, ZNF148 / RFU, TAF9 / Fold change vs veh, TAF9 / RFU, SLC1A5 / Fold change vs veh, SLC1A5 / RFU, SLMO2 / Fold change vs veh, SLMO2 / RFU, ABCC4 / Fold change vs veh, ABCC4 / RFU, LOC101060439 /// RAP1B / Fold change vs veh, LOC101060439 /// RAP1B / RFU, RFX7 / Fold change vs veh, RFX7 / RFU, GTPBP10 / Fold change vs veh, GTPBP10 / RFU, CNEP1R1 / Fold change vs veh, CNEP1R1 / RFU, BIVM-ERCC5 /// ERCC5 / Fold change vs veh, BIVM-ERCC5 /// ERCC5 / RFU, ILF3 / Fold change vs veh, ILF3 / RFU 11762660_at / Fold change /veh 11762660_at / RFU VCAN (11757783_s_at) / Fold change /veh VCAN (11757783_s_at) / RFU DDX43 (11728927_at) / Fold change /veh DDX43 (11728927_at) / RFU KRT8 (11758188_x_at) / Fold change /veh KRT8 (11758188_x_at) / RFU NKD1 (11759106_at) / Fold change /veh NKD1 (11759106_at) / RFU SRD5A1 (11742802_a_at) / Fold change /veh SRD5A1 (11742802_a_at) / RFU TPSAB1 /// TPSB2 (11721975_s_at) / Fold change /veh TPSAB1 /// TPSB2 (11721975_s_at) / RFU GSTM3 (11746129_a_at) / Fold change /veh GSTM3 (11746129_a_at) / RFU IL23R (11737362_x_at) / Fold change /veh IL23R (11737362_x_at) / RFU TMEM51 (11727254_a_at) / Fold change /veh TMEM51 (11727254_a_at) / RFU PIWIL2 (11732686_x_at) / Fold change /veh PIWIL2 (11732686_x_at) / RFU ORM1 (11744905_x_at) / Fold change /veh ORM1 (11744905_x_at) / RFU CCDC152 (11743942_at) / Fold change /veh CCDC152 (11743942_at) / RFU ECM1 (11717891_a_at) / Fold change /veh ECM1 (11717891_a_at) / RFU IL23R (11748794_a_at) / Fold change /veh IL23R (11748794_a_at) / RFU TNFAIP8L3 (11732012_x_at) / Fold change /veh TNFAIP8L3 (11732012_x_at) / RFU MBOAT4 (11741988_at) / Fold change /veh MBOAT4 (11741988_at) / RFU 11764193_at / Fold change /veh 11764193_at / RFU TMEM53 (11763286_at) / Fold change /veh TMEM53 (11763286_at) / RFU MAGEB2 (11727129_at) / Fold change /veh MAGEB2 (11727129_at) / RFU TMEM200A (11744735_a_at) / Fold change /veh TMEM200A (11744735_a_at) / RFU CCDC152 (11751479_a_at) / Fold change /veh CCDC152 (11751479_a_at) / RFU FAM211A (11726209_a_at) / Fold change /veh FAM211A (11726209_a_at) / RFU RGS16 (11746705_a_at) / Fold change /veh RGS16 (11746705_a_at) / RFU VCAN (11755009_s_at) / Fold change /veh VCAN (11755009_s_at) / RFU RHOB (11743442_s_at) / Fold change /veh RHOB (11743442_s_at) / RFU RGS16 (11720943_a_at) / Fold change /veh RGS16 (11720943_a_at) / RFU RGS16 (11720944_at) / Fold change /veh RGS16 (11720944_at) / RFU, VPS4B / Fold change vs veh, VPS4B / RFU, CREB1 / Fold change vs veh, CREB1 / RFU, DNAJC13 / Fold change vs veh, DNAJC13 / RFU, GNAQ / Fold change vs veh, GNAQ / RFU, CDK5R1 / Fold change vs veh, CDK5R1 / RFU, ZRANB3 / Fold change vs veh, ZRANB3 / RFU, CUL4A / Fold change vs veh, CUL4A / RFU, CCNY / Fold change vs veh, CCNY / RFU, UFL1 / Fold change vs veh, UFL1 / RFU, COG3 / Fold change vs veh, COG3 / RFU, DIAPH2 / Fold change vs veh, DIAPH2 / RFU, SKA2 / Fold change vs veh, SKA2 / RFU, AFF3 / Fold change vs veh, AFF3 / RFU, LMF1 / Fold change vs veh, LMF1 / RFU, IPO11 / Fold change vs veh, IPO11 / RFU, DFFB / Fold change vs veh, DFFB / RFU, FOXP1 / Fold change vs veh, FOXP1 / RFU, CARD8 / Fold change vs veh, CARD8 / RFU, STRN3 / Fold change vs veh, STRN3 / RFU, ADK / Fold change vs veh, ADK / RFU, RASSF2 / Fold change vs veh, RASSF2 / RFU, WIPF1 / Fold change vs veh, WIPF1 / RFU, LARP1B / Fold change vs veh, LARP1B / RFU, RASA1 / Fold change vs veh, RASA1 / RFU, RB1 / Fold change vs veh, RB1 / RFU, PPFIA1 / Fold change vs veh, PPFIA1 / RFU, MAT2A / Fold change vs veh, MAT2A / RFU, CCT5 / Fold change vs veh, CCT5 / RFU, WDR92 / Fold change vs veh, WDR92 / RFU, CUX1 / Fold change vs veh, CUX1 / RFU, TTC7A / Fold change vs veh, TTC7A / RFU, TMEM135 / Fold change vs veh, TMEM135 / RFU, DEPTOR / Fold change vs veh, DEPTOR / RFU, CPM / Fold change vs veh, CPM / RFU, DNAJB6 / Fold change vs veh, DNAJB6 / RFU, CACNA2D3 / Fold change vs veh, CACNA2D3 / RFU, DTX4 / Fold change vs veh, DTX4 / RFU, TFCP2 / Fold change vs veh, TFCP2 / RFU, GMCL1 /// GMCL1P1 / Fold change vs veh, GMCL1 /// GMCL1P1 / RFU, AEBP2 / Fold change vs veh, AEBP2 / RFU, SNHG1 /// SNORD22 /// SNORD25 /// SNORD26 /// SNORD27 /// SNORD28 /// SNORD29 /// SNORD31 / Fold change vs veh, SNHG1 /// SNORD22 /// SNORD25 /// SNORD26 /// SNORD27 /// SNORD28 /// SNORD29 /// SNORD31 / Fold change (Aza/veh), C12orf56 (ProbeSet 11735607_a_at) / Fold change (ACY-1035/veh), C12orf56 (ProbeSet 11735607_a_at) / Fold change (Aza/veh), FGFR1OP (ProbeSet 11751329_s_at) / Fold change (ACY-1035/veh), FGFR1OP (ProbeSet 11751329_s_at) / Fold change (Aza/veh), VPS36 (ProbeSet 11739960_a_at) / Fold change (ACY-1035/veh), VPS36 (ProbeSet 11739960_a_at) / RFU SYPL1 (11715823_x_at) / Fold change /veh SYPL1 (11715823_x_at) / RFU IGFBP7 (11715501_s_at) / Fold change /veh IGFBP7 (11715501_s_at) / RFU REEP3 (11722064_at) / Fold change /veh REEP3 (11722064_at) / RFU IGLL1 (11728026_x_at) / Fold change /veh IGLL1 (11728026_x_at): dose or concentration left out as unconfirmed
Conditions: ProbeSet 11732154_at; LIST B

How did the “Fold change vs veh, OGT” value turn out when Nc1ccc(-c2cccs2)cc1NC(=O)c1ccc2c(c1)cc(C1CC1)n2CCN1CCOCC1 [ACY-1035] was run?
Its value is 1.05.
